# Test results reported in PMC3161871, “Heteroarylketones inhibit astroglial interleukin-6 expression via a STAT3/NF-κB signaling pathway” (Journal of Neuroinflammation, 2011).
# How the values were obtained:
# [1] = tested on: IL-6 mRNA expression in U343 cells; test: OSM-induced IL-6 mRNA expression in U343 cells (qRT-PCR time course); assay type: cell-based, human; details: 20 μM compound
# Procedure: The human glioma cell line U343 [34] was maintained in DMEM containing 10% fetal bovine serum and 60 μg/ml gentamycin (Invitrogen, Darmstadt, Germany) at 37°C in a 10% CO2 atmosphere.
# Total RNA of cultured cells and homogenized mouse brain tissue samples was isolated using RNA isolation kit "NucleoSpin RNA II" from Macherey and Nagel. RNA quantity was measured by spectrophotometrical quantification (NanoDrop 2000, Peqlab, Erlangen, Germany). Total RNA (0.5 μg) was transcribed to cDNA using Superscript III and oligo-dT primer (Invitrogen, Darmstadt, Germany). Quantitative real-time PCR was performed with QuantiFast SYBR Green PCR Master mix (Qiagen, Hilden, Germany) using Rotorgene 3000 system (Corbett, Sydney, Australia). Gene expression was normalized to the expression of three reference genes glyceraldehyde 3-phosphate dehydrogenase (GAPDH), glucose-6-phosphate dehydrogenase (G6PDH) and hypoxanthine-guanine phosphoribosyltransferase (HPRT). Primers for PREP (5'-[…]-3'; 5'- […]-3') and IL-6 (5'-AAAGGACGTCACATTGCA-3'; 5'-[…]-3') were designed using the Primer3 Software (http://frodo.wi.mit.edu/). Data were analyzed by Rotorgene 3000 Software version 6.0 by comparative quantitation. The appropriate size of PCR products was confirmed by gel-electrophoresis stained with ethidium bromide.
# To analyze the time-course of OSM-induced IL-6 expression, U343 cells were incubated with OSM for different periods of time as indicated in figure 1B. Amounts of IL-6 mRNA and protein were subsequently quantified by qRT-PCR and by ELISA, respectively. […] Significant induction of IL-6 protein was detected in the conditioned medium as early as 3 h post stimulation and reaching a maximum at 24 h.
# To reveal whether bioactivity of HAK compounds is based on suppression of IL-6 protein biosynthesis or on interference with IL-6 mRNA expression OSM-treated U343 cells were incubated with 20 μM of compound HAK-2 for different periods of time. […] Therefore, it is very likely that the relevant molecular target of HAK compounds is involved in the OSM-induced signal transduction process not earlier than 6 h after onset of the stimulation.
# Figure 4 Time course of OSM-induced IL-6 mRNA expression in U343 cells treated with compound HAK-2. […] U343 cells were stimulated with 100 ng/ml OSM and treated with 0.1% DMSO as solvent control (solid line, black triangle) or 20 μM HAK-2 (dashed line, white triangle). Samples were harvested at time points indicated to extract total RNA. IL-6 mRNA expression was analyzed by qRT-PCR. All data points are presented as mean ± SD, and were obtained from experiments carried out in quadruplicate. Statistical analysis were performed between control and HAK-2 samples from same time point. ns, not significant; ***p < 0.001.
# [2] = tested on: LPS-induced IL-6 release in primary mouse astrocytes; test: LPS-induced IL-6 release in primary mouse astrocytes (ELISA); assay type: cell-based; details: 1 μg/ml LPS, 20 μM compound, 24 h
# Procedure: According to Löffler, astrocyte-rich primary cell cultures were started with brains of newborn mice and rats and were maintained in Dulbecco's modified Eagle's medium (DMEM) for 33 days at 37°C in a humified atmosphere with 95% air/5% CO2.
# Measurements of IL-6 in conditioned medium and murine plasma samples were done by means of human- or murine-specific IL-6 Cytoset kits (Invitrogen, Darmstadt, Germany) according to manufacturer's protocols.
# Figure 5 Suppression of LPS-induced IL-6 release in primary murine astrocytes by selected HAK compounds. […] Astrocytes derived from newborn mice and rats were cultivated for 33 days followed by stimulation with 1 μg/ml LPS and treatment with compounds HAK-2 and HAK-5 (20 μM). After 24 hours conditioned media were analyzed with IL-6 specific ELISA. Data (mean ± SD) were obtained from experiments carried out in quadruplicate and statistical analysis was performed using the paired t test. Amount of IL-6 in LPS-treated control sample was set to 100%. ns, not significant; **p < 0.01; ***p < 0.001.
# Primary murine astrocytes stimulated with 1 μg/ml LPS were co-treated with compounds HAK-2 and HAK-5 at a concentration of 20 μM each for 24 h. The observed effect of compounds HAK-2 and HAK-5 on LPS stimulation was similar to that of OSM-induced IL-6 expression in human U343 glioma cells (Figures 5A and 5B). […]
smiles,measurement,setting,value
"C[C@H](NC(=O)OCc1ccccc1)C(=O)N1CCC[C@H]1C(=O)c1nc2ccccc2s1 [HAK-2, Z-Ala-Pro-BTh]",Inhibition of OSM-induced IL-6 mRNA expression (time course),[1]; 100 ng/ml OSM,strong inhibition
same,Effect on second IL-6 mRNA expression peak,"[1]; 100 ng/ml OSM, 6 h post stimulation",completely suppresses
same,Effect on first IL-6 mRNA peak,[1]; 1 h post OSM stimulation,insensitive
same,Reduction of LPS-induced IL-6 expression,[2],60%
